*: point of attachment. FITC = O=C1OC2(c3ccc(O)cc3Oc3cc(O)ccc32)c2ccc(NC(=S)*)cc21
B1: B1 peptide (first extracellular loop of LMP1) (peptide)
peptide: CMSDWTGG
notes: first extracellular loop of latent membrane protein 1 (LMP1), Epstein-Barr virus; Made on Rink amide resin, so the C-terminus may be an amide (surmised); also called target B1; B1 loop of LMP1; source: synthetic peptide (solid-phase Fmoc chemistry, RP-HPLC purified)
B2: B1.12 peptide (peptide)
peptide: ACPLDLRSPCG
notes: peptide selected by phage display from the Ph.D.-C7C library against the B1 loop peptide of LMP1; Made on Rink amide MBHA resin, so the C-terminus may be an amide (surmised); also called selected peptide B1.12; source: synthetic peptide (solid-phase Fmoc chemistry, RP-HPLC purified)

Key:
[1] = tested on: LMP1 negative cells (HeLa/Gpt); experiment: Cellular uptake by flow cytometry, LMP1 negative cells; assay type: cell-based; conditions: FITC-labeled peptide 100 μM, 24 hours
Protocol: (§1) The cellular uptake of the FITC labeled B1.12 peptide/unrelated peptide was analyzed by flow cytometry. C666.1, HeLa/LMP1, and HeLa/Gpt cells, were seeded at a density of 4 × 10^5 cells/mL at 37 °C for 24 hours, and then incubated with 100 μM of both FITC-labeled peptides for 24 hours. Cells were washed three times, trypsinized, centrifuged at 1700 rpm for 5 minutes and then resuspended in 0.35 mL of PBS. The fluorescence associated to the cells was measured using LSR Fortessa X-20 (Becton Dickinson) for HeLa/LMP1 or Attune NxT Flow Cytometer (Thermofisher) cytometer for C666.1 and HeLa/Gpt cells.

[2] = tested on: LMP1 positive cells (C666.1, HeLa/LMP1); experiment: Cellular uptake by flow cytometry, LMP1 positive cells; assay type: cell-based; conditions: FITC-labeled peptide 100 μM, 24 hours, C666.1 and HeLa/LMP1
Protocol: as §1

C666.1 cells = experiment: Fluorescence microscopy, C666.1; assay type: cell-based; conditions: 10 µM FITC-labeled peptide, (1 hour elsewhere in the source), fixed C666.1 cells
Protocol: To further investigate the fixation of the peptide on C666.1 cells, fluorescence microscopy was performed. […] After being washed with PBS, the fixation of LMP1 was detected by Alexa-fluor 405 labeled secondary antibody (1/100). HeLa/Gpt cells were also stained as described above to serve as negative control. Images were analyzed using an EVOS Floid Cell Imaging Station (Life Technologies).

HeLa/Gpt cells = experiment: Fluorescence microscopy, HeLa/Gpt; assay type: cell-based; conditions: 10 µM FITC-labeled peptide, HeLa/Gpt negative control
Protocol: To further investigate the fixation of the peptide on C666.1 cells, fluorescence microscopy was performed. Approximately 1 × 10^6 cells were washed 3 times with PBS, fixed with 4% parafolmaldehyde for 15 minutes, blocked by 5 mg/mL BSA for 1 hour, and incubated with 10 μM FITC labeled B1.12 peptide or anti-LMP1 antibody (1/500 Dako) for 1 hour at room temperature. After being washed with PBS, the fixation of LMP1 was detected by Alexa-fluor 405 labeled secondary antibody (1/100). HeLa/Gpt cells were also stained as described above to serve as negative control. Images were analyzed using an EVOS Floid Cell Imaging Station (Life Technologies).

B1.12 peptide = molecular target: B2; experiment: ITC; 30 °C, NaHCO3 buffer 0.1 M pH 5.7; B1 peptide (0.2 mM) in the syringe injected (2 µL per injection) into B1.12 peptide (0.01 mM) in the cell; conditions: both partners purified
[3] = molecular target: Latent membrane protein 1 (LMP1) on HeLa/LMP1 cells (Epstein-Barr virus) (UniProt P03230); experiment: ELISA; competitive inhibition on HeLa/LMP1 cells fixed with 4% paraformaldehyde (10^4 cells/well); synthetic peptide 50-200 µM at 37 °C for 1 hour, then B1.12 phage; anti-M13 antibody detection
Latent membrane protein 1 (LMP1) on HeLa/LMP1 cells (Epstein-Barr virus), sequence (P03230 whole entry): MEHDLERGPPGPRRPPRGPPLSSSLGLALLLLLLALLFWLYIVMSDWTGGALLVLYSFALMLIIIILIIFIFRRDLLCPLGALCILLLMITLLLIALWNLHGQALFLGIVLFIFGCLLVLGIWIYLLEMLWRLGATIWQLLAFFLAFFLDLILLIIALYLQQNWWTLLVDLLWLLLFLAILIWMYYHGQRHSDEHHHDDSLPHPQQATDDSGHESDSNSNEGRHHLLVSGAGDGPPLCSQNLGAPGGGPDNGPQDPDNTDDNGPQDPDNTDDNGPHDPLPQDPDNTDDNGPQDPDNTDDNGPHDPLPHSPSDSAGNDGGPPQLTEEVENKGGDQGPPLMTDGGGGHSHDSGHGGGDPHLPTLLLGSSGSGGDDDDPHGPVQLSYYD

[4] = molecular target: B1; experiment: ELISA; competitive inhibition: B1 peptide coated (100 µl of 1 mg/mL in NaHCO3); B1.12 peptide incubated 1 hour at room temperature, then B1.12 phage (2 × 10^10 pfu) 1 hour; bound phage detected by anti-M13 antibody; conditions: both partners purified
[5] = molecular target: B1; experiment: ELISA; B1 peptide (100 µg) coated on the plate; about 1 × 10^10 pfu of phage clone added, 1 hour at room temperature; ten washes with 0.5% TBST; anti-M13 antibody and HRP anti-mouse, ABTS; conditions: both partners purified

**Q.** How did the cellular binding/uptake [1] turn out when “FITC-labeled B1.12 peptide: N-terminus FITC labeled B1.12 ({FITC}-ACPLDLRSPCG-NH2; cysteine pairing not given here)” was run?
**A.** Its cellular binding/uptake is “no binding”.

**Q.** And the cellular uptake [2]?
**A.** Its cellular uptake is “significantly higher uptake”.

**Q.** What about the “colocalization with LMP1” value (C666.1 cells) of the same molecule?
**A.** The value was “co-localized with LMP1”.

**Q.** And the “binding to cells (microscopy)” value (HeLa/Gpt cells)?
**A.** The value was “no binding was observed”.

**Q.** Does B1 bind (B1.12 peptide)?
**A.** Result: binds

**Q.** What does the source list for B2?
**A.** inhibition ratio of phage B1.12 binding at 100 µM peptide [3]: 45%; inhibition ratio of phage B1.12 binding at 400 µM peptide [4]: ~43%

B3: B1.12 phage clone (other)
chain: ACPLDLRSPCGGGS
notes: whole phage particles were used and detected with an anti-M13 antibody; also called phage B1.12; positive phage B1.12; source: M13 phage clone from the Ph.D.-C7C library (New England Biolabs), amplified in E. coli ER2738 and titrated; not shown: M13 coat protein pIII (on the phage particle), C-terminal, kept
**Q.** Does B3 bind [5]?
**A.** Result: binds

From paper PMC6416395, “B1.12: a novel peptide interacting with the extracellular loop of the EBV oncoprotein LMP1” (Scientific Reports, 2019)
